Laboratory results from ChEMBL document CHEMBL4052645, “Discovery of potent and efficacious pyrrolopyridazines as dual JAK1/3 inhibitors” (Bioorg Med Chem Lett, 2017).

Experiments:
[1] = molecular target: Tyrosine-protein kinase Yes (Homo sapiens) (UniProt P07947); experiment: Inhibition of wild-type human partial length YES (T257 to L543 residues) expressed in bacterial expression system assessed as residual activity at 50 nM by Kinomescan method relative to control
[2] = molecular target: NT-3 growth factor receptor (Homo sapiens) (UniProt Q16288); experiment: Inhibition of wild-type human partial length TRKC (Q531 to G825 residues) expressed in mammalian expression system assessed as residual activity at 50 nM by Kinomescan method relative to control
Homo sapiens = organism: Homo sapiens; experiment: Inhibition of human partial length FLT3 ITD mutant expressed in bacterial expression system assessed as residual activity at 50 nM by Kinomescan method relative to control
[3] = system: Phosphatidylinositol 4,5-bisphosphate 3-kinase catalytic subunit alpha isoform (Homo sapiens), P42336 [H1047Y]; experiment: Inhibition of human partial length PIK3CA H1047Y mutant (R108 to N1068 residues) expressed in mammalian expression system assessed as residual activity at 50 nM by Kinomescan method relative to control
Sequence of Phosphatidylinositol 4,5-bisphosphate 3-kinase catalytic subunit alpha isoform (Homo sapiens), P42336 [H1047Y] (P42336 whole entry H1047Y, the tested form may be a part, canonical isoform): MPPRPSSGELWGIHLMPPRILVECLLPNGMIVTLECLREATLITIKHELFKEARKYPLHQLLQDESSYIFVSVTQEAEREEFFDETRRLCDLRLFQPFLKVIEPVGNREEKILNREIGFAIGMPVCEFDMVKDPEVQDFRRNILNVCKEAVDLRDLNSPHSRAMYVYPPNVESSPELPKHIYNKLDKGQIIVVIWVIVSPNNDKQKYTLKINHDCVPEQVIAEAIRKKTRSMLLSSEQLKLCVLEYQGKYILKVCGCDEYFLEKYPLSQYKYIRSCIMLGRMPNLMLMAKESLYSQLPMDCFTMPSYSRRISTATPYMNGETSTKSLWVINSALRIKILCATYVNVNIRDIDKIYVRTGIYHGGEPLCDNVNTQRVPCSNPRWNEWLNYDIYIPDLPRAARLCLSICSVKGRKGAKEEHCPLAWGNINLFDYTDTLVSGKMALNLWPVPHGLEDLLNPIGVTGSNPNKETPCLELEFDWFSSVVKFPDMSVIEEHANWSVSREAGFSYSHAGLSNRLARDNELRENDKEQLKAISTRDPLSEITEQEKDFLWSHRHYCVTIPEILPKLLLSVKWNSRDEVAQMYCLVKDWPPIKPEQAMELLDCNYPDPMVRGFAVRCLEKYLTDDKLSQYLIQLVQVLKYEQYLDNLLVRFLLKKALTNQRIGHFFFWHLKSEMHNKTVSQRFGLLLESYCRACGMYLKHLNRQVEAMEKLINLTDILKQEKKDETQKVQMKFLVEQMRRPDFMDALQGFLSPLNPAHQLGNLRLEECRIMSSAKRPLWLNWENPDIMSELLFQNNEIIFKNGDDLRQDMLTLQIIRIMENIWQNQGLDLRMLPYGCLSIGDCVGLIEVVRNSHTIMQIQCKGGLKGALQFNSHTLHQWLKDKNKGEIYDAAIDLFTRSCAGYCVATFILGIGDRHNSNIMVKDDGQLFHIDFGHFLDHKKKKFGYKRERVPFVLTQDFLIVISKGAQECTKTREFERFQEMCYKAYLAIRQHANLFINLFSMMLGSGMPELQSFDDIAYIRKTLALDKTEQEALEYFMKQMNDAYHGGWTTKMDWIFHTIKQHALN

[4] = molecular target: Mitogen-activated protein kinase kinase kinase kinase 5 (Homo sapiens) (UniProt Q9Y4K4); experiment: Inhibition of recombinant human KHS1 (M1 to P297 residues) expressed in bacterial expression system assessed as residual activity at 50 nM by Kinomescan method relative to control
Sequence of Mitogen-activated protein kinase kinase kinase kinase 5 (Homo sapiens) (Q9Y4K4 whole entry, looked up, the tested form may be a part): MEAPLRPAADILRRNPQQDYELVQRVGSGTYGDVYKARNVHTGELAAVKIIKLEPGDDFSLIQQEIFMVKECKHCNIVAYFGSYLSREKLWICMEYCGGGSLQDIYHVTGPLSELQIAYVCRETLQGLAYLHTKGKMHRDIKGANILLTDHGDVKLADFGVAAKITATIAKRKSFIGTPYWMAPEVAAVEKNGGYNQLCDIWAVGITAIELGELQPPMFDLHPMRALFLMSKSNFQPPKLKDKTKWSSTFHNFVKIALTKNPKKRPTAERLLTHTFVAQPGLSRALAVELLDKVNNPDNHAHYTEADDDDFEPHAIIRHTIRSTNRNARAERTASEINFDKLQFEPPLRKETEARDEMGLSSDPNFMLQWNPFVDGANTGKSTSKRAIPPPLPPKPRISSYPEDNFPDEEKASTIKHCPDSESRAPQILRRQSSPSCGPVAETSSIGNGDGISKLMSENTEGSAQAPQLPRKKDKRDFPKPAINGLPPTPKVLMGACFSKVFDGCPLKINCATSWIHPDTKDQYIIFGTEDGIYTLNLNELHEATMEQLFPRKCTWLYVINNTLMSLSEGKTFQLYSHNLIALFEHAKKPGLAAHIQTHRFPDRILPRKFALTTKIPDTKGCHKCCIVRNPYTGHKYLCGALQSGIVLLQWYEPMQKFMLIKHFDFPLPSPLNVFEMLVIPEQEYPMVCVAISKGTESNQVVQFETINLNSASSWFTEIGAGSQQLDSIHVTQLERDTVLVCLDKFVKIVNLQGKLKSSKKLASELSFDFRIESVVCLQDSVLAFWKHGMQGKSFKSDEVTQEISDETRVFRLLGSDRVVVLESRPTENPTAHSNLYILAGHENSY

[5] = molecular target: Serine/threonine-protein kinase TNNI3K (Homo sapiens) (UniProt Q59H18); experiment: Inhibition of wild-type human HH498 (M1 to S835 residues) expressed in bacterial expression system assessed as residual activity at 50 nM by Kinomescan method relative to control
[6] = molecular target: Cyclin-G-associated kinase (Homo sapiens) (UniProt O14976); experiment: Inhibition of wild-type human partial length GAK (G13 to Y338 residues) expressed in bacterial expression system assessed as residual activity at 50 nM by Kinomescan method relative to control
[7] = molecular target: Serine/threonine-protein kinase MRCK gamma (Homo sapiens) (UniProt Q6DT37); experiment: Inhibition of wild-type human partial length DMPK2 (S46 to S408 residues) expressed in bacterial expression system assessed as residual activity at 50 nM by Kinomescan method relative to control
[8] = molecular target: MAP kinase-interacting serine/threonine-protein kinase 1 (Homo sapiens) (UniProt Q9BUB5); experiment: Inhibition of wild-type human full length MNK1 (M1 to L424 residues) expressed in mammalian expression system assessed as residual activity at 50 nM by Kinomescan method relative to control
Sequence of MAP kinase-interacting serine/threonine-protein kinase 1 (Homo sapiens) (Q9BUB5 whole entry, looked up, the tested form may be a part): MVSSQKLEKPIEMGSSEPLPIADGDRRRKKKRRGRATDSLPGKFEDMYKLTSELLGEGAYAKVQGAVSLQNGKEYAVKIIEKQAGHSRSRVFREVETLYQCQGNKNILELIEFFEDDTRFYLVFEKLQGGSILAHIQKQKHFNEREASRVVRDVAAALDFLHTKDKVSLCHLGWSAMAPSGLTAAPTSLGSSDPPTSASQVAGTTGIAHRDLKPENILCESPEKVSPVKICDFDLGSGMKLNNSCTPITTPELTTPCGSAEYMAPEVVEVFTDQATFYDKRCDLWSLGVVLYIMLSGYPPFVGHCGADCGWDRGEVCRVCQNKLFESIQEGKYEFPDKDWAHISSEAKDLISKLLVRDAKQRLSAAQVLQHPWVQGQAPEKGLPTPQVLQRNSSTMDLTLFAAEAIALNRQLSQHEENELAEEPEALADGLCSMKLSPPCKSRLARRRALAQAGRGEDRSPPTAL

[9] = molecular target: Transient receptor potential cation channel subfamily M member 6 (Homo sapiens) (UniProt Q9BX84); experiment: Inhibition of wild-type human partial length TRPM6 (Q1723 to I1998 residues) expressed in mammalian expression system assessed as residual activity at 50 nM by Kinomescan method relative to control
[10] = molecular target: T1, Tyrosine-protein kinase JAK3 (Homo sapiens, UniProt P52333); experiment: Inhibition of JAK3 (unknown origin) using CSKtide as substrate after 30 mins in presence of [gamma33P]ATP by liquid scintillation counting method
T1 sequence (P52333 whole entry): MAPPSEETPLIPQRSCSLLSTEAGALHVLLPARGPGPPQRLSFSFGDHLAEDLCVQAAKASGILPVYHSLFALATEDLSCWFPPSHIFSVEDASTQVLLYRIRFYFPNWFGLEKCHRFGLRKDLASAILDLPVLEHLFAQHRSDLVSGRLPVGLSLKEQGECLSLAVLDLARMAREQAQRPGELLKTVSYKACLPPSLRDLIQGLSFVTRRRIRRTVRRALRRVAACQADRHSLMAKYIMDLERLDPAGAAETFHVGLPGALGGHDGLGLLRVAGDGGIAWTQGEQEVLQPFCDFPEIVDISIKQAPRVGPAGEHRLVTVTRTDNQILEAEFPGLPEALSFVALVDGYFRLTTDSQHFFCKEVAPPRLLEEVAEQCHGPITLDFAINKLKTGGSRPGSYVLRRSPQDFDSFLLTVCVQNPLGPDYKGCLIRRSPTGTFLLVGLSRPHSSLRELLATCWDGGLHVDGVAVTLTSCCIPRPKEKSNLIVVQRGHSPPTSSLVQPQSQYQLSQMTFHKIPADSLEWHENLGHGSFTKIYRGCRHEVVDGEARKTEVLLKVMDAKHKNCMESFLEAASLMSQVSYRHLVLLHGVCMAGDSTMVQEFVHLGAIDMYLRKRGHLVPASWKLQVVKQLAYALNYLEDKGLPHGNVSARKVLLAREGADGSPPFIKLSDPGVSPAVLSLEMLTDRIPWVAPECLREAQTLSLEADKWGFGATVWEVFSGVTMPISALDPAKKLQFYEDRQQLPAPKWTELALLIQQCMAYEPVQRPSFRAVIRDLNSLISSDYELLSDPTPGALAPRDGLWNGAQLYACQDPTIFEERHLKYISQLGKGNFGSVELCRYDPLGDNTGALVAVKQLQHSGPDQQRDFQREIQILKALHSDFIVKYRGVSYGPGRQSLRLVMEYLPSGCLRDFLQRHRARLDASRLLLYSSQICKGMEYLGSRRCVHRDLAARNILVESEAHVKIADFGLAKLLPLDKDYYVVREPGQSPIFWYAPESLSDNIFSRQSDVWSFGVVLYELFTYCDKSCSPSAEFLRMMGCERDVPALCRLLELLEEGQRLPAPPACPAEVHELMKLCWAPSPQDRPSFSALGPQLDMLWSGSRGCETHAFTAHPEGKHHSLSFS

[11] = molecular target: Mitogen-activated protein kinase kinase kinase kinase 1 (Homo sapiens) (UniProt Q92918); experiment: Inhibition of wild-type human full length HPK1 (M1 to R799 residues) expressed in bacterial expression system assessed as residual activity at 50 nM by Kinomescan method relative to control
Sequence of Mitogen-activated protein kinase kinase kinase kinase 1 (Homo sapiens) (Q92918 whole entry, looked up, the tested form may be a part): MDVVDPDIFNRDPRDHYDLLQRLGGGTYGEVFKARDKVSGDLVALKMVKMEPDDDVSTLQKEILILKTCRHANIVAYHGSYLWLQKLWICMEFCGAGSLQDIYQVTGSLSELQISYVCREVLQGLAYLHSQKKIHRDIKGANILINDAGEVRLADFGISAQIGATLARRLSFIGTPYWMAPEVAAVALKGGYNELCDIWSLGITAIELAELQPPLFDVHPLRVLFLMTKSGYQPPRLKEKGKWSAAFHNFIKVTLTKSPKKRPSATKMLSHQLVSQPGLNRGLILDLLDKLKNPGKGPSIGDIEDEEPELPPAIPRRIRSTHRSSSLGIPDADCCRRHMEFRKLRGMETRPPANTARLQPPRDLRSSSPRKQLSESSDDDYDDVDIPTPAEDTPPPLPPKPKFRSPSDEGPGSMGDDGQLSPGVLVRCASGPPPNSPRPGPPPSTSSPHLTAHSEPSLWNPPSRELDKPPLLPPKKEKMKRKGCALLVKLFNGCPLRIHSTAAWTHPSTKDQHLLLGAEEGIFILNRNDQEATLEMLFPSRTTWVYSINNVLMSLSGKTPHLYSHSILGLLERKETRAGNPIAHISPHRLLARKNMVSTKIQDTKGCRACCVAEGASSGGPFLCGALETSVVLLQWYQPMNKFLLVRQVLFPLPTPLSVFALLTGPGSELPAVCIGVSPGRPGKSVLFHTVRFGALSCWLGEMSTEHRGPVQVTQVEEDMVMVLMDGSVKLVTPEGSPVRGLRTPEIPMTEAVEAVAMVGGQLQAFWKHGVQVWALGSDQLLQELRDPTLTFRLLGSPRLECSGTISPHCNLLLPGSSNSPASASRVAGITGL

[12] = molecular target: Dual serine/threonine and tyrosine protein kinase (Homo sapiens) (UniProt Q6XUX3); experiment: Inhibition of wild-type human full length RIPK5 (M1 to T929 residues) expressed in mammalian expression system assessed as residual activity at 50 nM by Kinomescan method relative to control
[13] = molecular target: Serine/threonine-protein kinase PAK 3 (Homo sapiens) (UniProt O75914); experiment: Inhibition of wild-type human full length PAK3 (M1 to R544 residues) expressed in bacterial expression system assessed as residual activity at 50 nM by Kinomescan method relative to control
Sequence of Serine/threonine-protein kinase PAK 3 (Homo sapiens) (O75914 whole entry, looked up, the tested form may be a part): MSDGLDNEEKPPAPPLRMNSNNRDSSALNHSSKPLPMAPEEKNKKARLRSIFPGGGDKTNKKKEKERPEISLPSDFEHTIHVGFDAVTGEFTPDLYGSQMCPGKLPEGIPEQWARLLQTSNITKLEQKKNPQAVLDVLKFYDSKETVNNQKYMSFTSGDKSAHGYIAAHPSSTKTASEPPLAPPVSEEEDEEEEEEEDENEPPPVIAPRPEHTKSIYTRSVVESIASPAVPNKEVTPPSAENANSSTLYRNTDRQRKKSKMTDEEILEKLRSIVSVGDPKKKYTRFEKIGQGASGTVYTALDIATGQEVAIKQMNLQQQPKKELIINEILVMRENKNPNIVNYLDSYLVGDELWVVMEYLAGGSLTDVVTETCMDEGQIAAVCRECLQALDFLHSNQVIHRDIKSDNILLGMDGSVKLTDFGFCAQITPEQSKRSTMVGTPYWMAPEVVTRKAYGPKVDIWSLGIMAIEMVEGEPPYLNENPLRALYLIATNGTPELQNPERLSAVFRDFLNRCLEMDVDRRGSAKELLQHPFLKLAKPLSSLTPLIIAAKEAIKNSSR

[14] = molecular target: Serine/threonine-protein kinase RIO2 (Homo sapiens) (UniProt Q9BVS4); experiment: Inhibition of wild-type human partial length RIOK2 (M1 to D313 residues) expressed in mammalian expression system assessed as residual activity at 50 nM by Kinomescan method relative to control
Sequence of Serine/threonine-protein kinase RIO2 (Homo sapiens) (Q9BVS4 whole entry, looked up, the tested form may be a part): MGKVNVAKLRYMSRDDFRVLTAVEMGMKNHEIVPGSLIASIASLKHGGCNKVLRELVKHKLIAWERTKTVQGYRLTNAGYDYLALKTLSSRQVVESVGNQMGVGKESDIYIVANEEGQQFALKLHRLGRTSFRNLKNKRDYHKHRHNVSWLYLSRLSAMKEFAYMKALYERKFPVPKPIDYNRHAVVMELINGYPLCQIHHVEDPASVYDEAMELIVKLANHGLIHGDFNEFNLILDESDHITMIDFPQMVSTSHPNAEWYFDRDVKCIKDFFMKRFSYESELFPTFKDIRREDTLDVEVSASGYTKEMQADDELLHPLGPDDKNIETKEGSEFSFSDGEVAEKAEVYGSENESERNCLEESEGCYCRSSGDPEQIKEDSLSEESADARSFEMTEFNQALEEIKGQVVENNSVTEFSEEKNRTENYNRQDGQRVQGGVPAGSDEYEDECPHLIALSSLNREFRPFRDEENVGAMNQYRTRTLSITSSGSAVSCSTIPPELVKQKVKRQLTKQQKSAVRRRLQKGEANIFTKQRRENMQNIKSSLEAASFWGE

[15] = molecular target: Leucine-rich repeat serine/threonine-protein kinase 2 (Homo sapiens) (UniProt Q5S007); experiment: Inhibition of wild-type human partial length LRRK2 (H970 to E2527 residues) expressed in mammalian expression system assessed as residual activity at 50 nM by Kinomescan method relative to control
[16] = molecular target: Receptor tyrosine-protein kinase erbB-4 (Homo sapiens) (UniProt Q15303); experiment: Inhibition of wild-type human partial length ERBB4 (L690 to K994 residues) expressed in bacterial expression system assessed as residual activity at 50 nM by Kinomescan method relative to control

Sequence of Tyrosine-protein kinase Yes (Homo sapiens) (P07947 2-543 limits assumed): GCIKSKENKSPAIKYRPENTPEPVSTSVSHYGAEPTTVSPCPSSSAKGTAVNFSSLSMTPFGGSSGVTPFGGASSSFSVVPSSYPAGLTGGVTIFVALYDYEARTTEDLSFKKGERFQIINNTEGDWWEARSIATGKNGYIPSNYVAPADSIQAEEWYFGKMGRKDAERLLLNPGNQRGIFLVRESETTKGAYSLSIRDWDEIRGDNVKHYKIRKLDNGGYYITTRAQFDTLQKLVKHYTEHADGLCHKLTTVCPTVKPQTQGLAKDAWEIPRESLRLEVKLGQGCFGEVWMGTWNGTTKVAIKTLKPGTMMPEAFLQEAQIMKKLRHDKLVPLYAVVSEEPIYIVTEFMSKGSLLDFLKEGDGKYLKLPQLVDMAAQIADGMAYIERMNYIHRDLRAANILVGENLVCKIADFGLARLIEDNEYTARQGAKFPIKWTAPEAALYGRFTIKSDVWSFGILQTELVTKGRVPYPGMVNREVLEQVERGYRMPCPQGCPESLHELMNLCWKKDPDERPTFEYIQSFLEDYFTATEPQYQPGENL

Compound: CC1(C)[C@H](Nc2c(C(N)=O)cnn3cc(-c4ccccc4)cc23)CC[C@]1(C)N
- Activity [1]: 89%
- Activity [2]: 100%
- Activity (Homo sapiens): 80%
- Activity [3]: 66%
- Activity [4]: 80%
- Activity [5]: 83%
- Activity [6]: 91%
- Activity [7]: 37%
- Activity [8]: 54%
- Activity [9]: 100%
- IC50 [10]: 0.9 nM
- Activity [11]: 66%
- Activity [12]: 92%
- Activity [13]: 53%
- Activity [14]: 50%
- Activity [15]: 21%
- Activity [16]: 87%

Compound: COc1ccc(-c2cc3c(N[C@@H]4CC[C@](C)(N)C4(C)C)c(C(N)=O)cnn3c2)cn1
- Activity [1]: 94%
- Activity [2]: 100%
- Activity (Homo sapiens): 79%
- Activity [3]: 100%
- Activity [4]: 100%
- Activity [5]: 97%
- Activity [6]: 100%
- Activity [7]: 97%
- Activity [8]: 100%
- Activity [9]: 90%
- IC50 [10]: 0.9 nM
- Activity [11]: 70%
- Activity [12]: 74%
- Activity [13]: 64%
- Activity [14]: 99%
- Activity [15]: 25%
- Activity [16]: 100%
